Measurements as given in patent publication US20170368082A1, “FORMULATIONS OF BRINCIDOFOVIR” (priority 2016, published 2017).

Assay: Tissue distribution by quantitative whole-body autoradiography (QWBA)
Assay type: in vivo, male Sprague Dawley and Long-Evans rats
Conditions: for Concentration of radioactivity: SD rat, 15 mg/kg IV
Experimental: The study utilized 4 groups of male SD rats (albino), and 3 groups of male LE rats (pigmented); a total of 39 rats. All animals were obtained from Hilltop Lab Animals, Inc. (Scottdale, Pa.). […] Rats in Group 5 were administered a single 2-h IV infusion of [^14C]brincidofovir at a target dose of 2 mg/kg. […] Three dosing formulations (one for high dose IV, one for low dose IV, and one for PO dose) were prepared at QPS on the day of dosing. The IV formulation for Groups 1, 2, 3, and 4 contained a vehicle of 10 mM sodium phosphate buffer in 5% dextrose solution at pH 8.0(±0.1).
Each animal, at their respective termination time points, was euthanized for QWBA analysis immediately after blood collection. One rat per time point per Group was euthanized as listed below.
The blood samples were maintained on wet ice (approximately 4° C.) and then centrifuged to obtain plasma within 1 h of the blood collection time. Centrifuge settings were recorded in the study notebook. Duplicate aliquots of plasma (0.050 mL) were analyzed for radioactivity using direct counting by LSC, and residual plasma was stored at approximately −70° C. and was saved for possible future analysis under a separate study protocol. Residual red blood cells were discarded as radioactive waste.
The pinna, distal limbs, hair, and tail were removed from each frozen carcass and each frozen carcass was embedded in an aqueous suspension of approximately 2% (w/v) carboxymethylcellulose and frozen into a block. The blocks were stored at approximately −20° C. prior to sectioning. Each blocked carcass was mounted on the object stage of a cryomicrotome (Leica CM3600 Cryomacrocut, Nussloch, Germany and Vibratome 9800, St. Louis, Mo.) maintained at approximately −20° C. and internal standards (3), which were plasma fortified with [^14C]-glucose at one concentration (approximately 0.05 μCi/mL), were placed into the frozen blocks, prior to sectioning, and were used for section thickness quality control. A number of whole-body sections (approximately 40 μm thick) were taken in the sagittal plane at various levels of interest using a whole-body cryomicrotome set at −20° C. Sagittal sections (20-50 μm thick) of frozen carcasses were exposed to phosphor imaging plates. Regions of images in tissues were converted to concentrations using standards. All of the major tissues, organs, and biological fluids were represented.
Tissue concentration data was determined for the following tissues and/or contents: adipose (brown and white), adrenal gland, bile (in duct), blood (cardiac), bone, bone marrow, brain (cerebrum, cerebellum, medulla), cecum (and contents), large intestine (and contents), epididymis, esophagus, eye (uvea and lens), Harderian gland, heart, kidney (cortex and medulla), liver, lung, lymph node, pancreas, pituitary gland, prostate gland, salivary gland, seminal vesicles, skeletal muscle, skin (pigmented and non-pigmented), small intestine (and contents), stomach (gastric mucosa and contents), spleen, spinal cord, testis, thymus, thyroid, and urinary bladder (and contents).
The imaging plate and sections were placed in light-tight exposure cassettes, in a copper-lined lead safe, for a 4-day exposure at room temperature. […] Quantification was performed by image densitometry using MCD image analysis software (v. 7.0, Interfocus Imaging Ltd) and a standard curve constructed from the integrated response [i.e., Molecular Dynamics Counts per square millimeter (MDC/mm^2)] and the nominal concentrations of the ^14C-calibration standards. The concentrations of radioactivity were expressed as the μg equivalents of [^14C]brincidofovir per gram sample (μg equiv/g). A lower limit of quantification (LLOQ) was applied to the data (See section 6.7.4).
Tissue concentrations that fell below the LLOQ were identified as being below the quantification limit (BQL). Tissue areas that were not visualized on autoradiographic images were identified as no sample (NS) and reported as BQL.

## CCCCCCCCCCCCCCCCOCCCOP(=O)(O)CO[C@H](CO)Cn1ccc(N)nc1=O [[^14C]brincidofovir]
Group 6 SD, 15 mg/kg PO
  Concentration at Tmax: kidney medulla: 7.9 μg equiv/g
  Concentration at Tmax: liver: 20.6 μg equiv/g
  Concentration at Tmax: small intestine: 236.3 μg equiv/g
  Concentration at Tmax: stomach: 11.2 μg equiv/g
  Concentration at Tmax: urinary bladder: 17.3 μg equiv/g
  Residual concentration in small intestine at 168 h: 2.7 μg equiv/g
Group 6 SD, 15 mg/kg PO, 2 h
  Highest observed concentration in blood: 0.200 μg equiv/g
Group 7, 8 h
  Urinary bladder contents: 110.9 μg equiv/g
Group 7 LE pigmented rats, oral 15 mg/kg, c2-c11 = 0.5, 1, 2, 4, 8, 24, 72, 96, 168, 840 h, LLOQ 0.034
  Concentration of radioactivity, Eye (lens): BQL
Group 7 LE, 15 mg/kg PO
  Concentration at Tmax: cecum: 7.6 μg equiv/g
  Concentration at Tmax: kidney cortex: 17.8 μg equiv/g
  Concentration at Tmax: kidney medulla: 9.1 μg equiv/g
  Concentration at Tmax: large intestine: 3.3 μg equiv/g
  Concentration at Tmax: liver: 36.1 μg equiv/g
  Concentration at Tmax: small intestine: 458.5 μg equiv/g
  Concentration at Tmax: stomach: 12.0 μg equiv/g
  Concentration at Tmax: urinary bladder: 3.7 μg equiv/g
Group 7 LE, 15 mg/kg PO, 8 h
  Highest observed concentration in blood: 1.1 μg equiv/g
Harderian Gland, 2 h
  Concentration of radioactivity: 2.081 μg equiv./g
Harderian Gland, 24 h
  Concentration of radioactivity: 1.278 μg equiv./g
Harderian Gland, 168 h
  Concentration of radioactivity: 0.954 μg equiv./g
Heart, 2 h
  Concentration of radioactivity: 2.540 μg equiv./g
Heart, 24 h
  Concentration of radioactivity: 0.408 μg equiv./g
Heart, 168 h
  Concentration of radioactivity: 0.057 μg equiv./g
IV administration
  Radioactivity in brain and spinal cord relative to plasma concentration: ~20%
IV and oral
  Tissue to plasma ratios (T/P) in liver, kidney and small intestine: > 30
IV infusion, 15 mg/kg
  Small intestine tissue to plasma ratio: 32
Kidney Cortex, 2 h
  Concentration of radioactivity: 106.513 μg equiv./g
Kidney Cortex, 24 h
  Concentration of radioactivity: 32.109 μg equiv./g
Kidney Cortex, 168 h
  Concentration of radioactivity: 0.474 μg equiv./g
Kidney Medulla, 2 h
  Concentration of radioactivity: 33.444 μg equiv./g
Kidney Medulla, 24 h
  Concentration of radioactivity: 4.271 μg equiv./g
Kidney Medulla, 168 h
  Concentration of radioactivity: 0.186 μg equiv./g
Liver, 2 h
  Concentration of radioactivity: 229.371 μg equiv./g
Liver, 24 h
  Concentration of radioactivity: 13.907 μg equiv./g
Liver, 168 h
  Concentration of radioactivity: 0.453 μg equiv./g
Lung, 2 h
  Concentration of radioactivity: 5.675 μg equiv./g
Lung, 24 h
  Concentration of radioactivity: 1.128 μg equiv./g
Lung, 168 h
  Concentration of radioactivity: 0.296 μg equiv./g
Lymph Node, 2 h
  Concentration of radioactivity: 4.055 μg equiv./g
Lymph Node, 24 h
  Concentration of radioactivity: 1.004 μg equiv./g
Lymph Node, 168 h
  Concentration of radioactivity: 0.247 μg equiv./g
Pancreas, 2 h
  Concentration of radioactivity: 1.974 μg equiv./g
Pancreas, 24 h
  Concentration of radioactivity: 0.557 μg equiv./g
Pancreas, 168 h
  Concentration of radioactivity: BQL (BQL = Value is below the LLOQ)
Pituitary Gland, 2 h
  Concentration of radioactivity: 2.793 μg equiv./g
Pituitary Gland, 24 h
  Concentration of radioactivity: 1.021 μg equiv./g
Pituitary Gland, 168 h
  Concentration of radioactivity: 0.257 μg equiv./g
Prostate Gland, 2 h
  Concentration of radioactivity: 2.033 μg equiv./g
Prostate Gland, 24 h
  Concentration of radioactivity: 0.254 μg equiv./g
Prostate Gland, 168 h
  Concentration of radioactivity: 0.051 μg equiv./g
Salivary Gland, 2 h
  Concentration of radioactivity: 2.049 μg equiv./g
Salivary Gland, 24 h
  Concentration of radioactivity: 0.395 μg equiv./g
Salivary Gland, 168 h
  Concentration of radioactivity: 0.047 μg equiv./g
Seminal Vesicles, 2 h
  Concentration of radioactivity: 1.809 μg equiv./g
Seminal Vesicles, 24 h
  Concentration of radioactivity: 1.636 μg equiv./g
Seminal Vesicles, 168 h
  Concentration of radioactivity: 0.817 μg equiv./g
Skeletal Muscle, 2 h
  Concentration of radioactivity: 0.868 μg equiv./g
Skeletal Muscle, 24 h
  Concentration of radioactivity: 0.099 μg equiv./g
Skeletal Muscle, 168 h
  Concentration of radioactivity: BQL (BQL = Value is below the LLOQ)
Skin (non-pigmented), 2 h
  Concentration of radioactivity: 2.277 μg equiv./g
Skin (non-pigmented), 24 h
  Concentration of radioactivity: 0.602 μg equiv./g
Skin (non-pigmented), 168 h
  Concentration of radioactivity: 0.121 μg equiv./g
Spinal Cord, 2 h
  Concentration of radioactivity: 0.437 μg equiv./g
Spinal Cord, 24 h
  Concentration of radioactivity: 0.079 μg equiv./g
Spinal Cord, 168 h
  Concentration of radioactivity: BQL (BQL = Value is below the LLOQ)
Spleen, 2 h
  Concentration of radioactivity: 4.536 μg equiv./g
Spleen, 24 h
  Concentration of radioactivity: 2.244 μg equiv./g
Spleen, 168 h
  Concentration of radioactivity: 0.694 μg equiv./g
Testis, 2 h
  Concentration of radioactivity: 1.647 μg equiv./g
Testis, 24 h
  Concentration of radioactivity: 0.436 μg equiv./g
Testis, 168 h
  Concentration of radioactivity: 0.078 μg equiv./g
Thymus, 2 h
  Concentration of radioactivity: 2.373 μg equiv./g
Thymus, 24 h
  Concentration of radioactivity: 0.556 μg equiv./g
Thymus, 168 h
  Concentration of radioactivity: 0.105 μg equiv./g
Thyroid, 2 h
  Concentration of radioactivity: 2.751 μg equiv./g
Thyroid, 24 h
  Concentration of radioactivity: 0.791 μg equiv./g
Thyroid, 168 h
  Concentration of radioactivity: 0.239 μg equiv./g
Urinary Bladder (contents), 2 h
  Concentration of radioactivity: 47.034 μg equiv./g
Urinary Bladder (contents), 24 h
  Concentration of radioactivity: 21.237 μg equiv./g
Urinary Bladder (contents), 168 h
  Concentration of radioactivity: 0.121 μg equiv./g
Urinary Bladder, 2 h
  Concentration of radioactivity: 35.978 μg equiv./g
Urinary Bladder, 24 h
  Concentration of radioactivity: 2.264 μg equiv./g
Urinary Bladder, 168 h
  Concentration of radioactivity: 0.132 μg equiv./g
Oral administration
  Radioactivity in brain and spinal cord relative to plasma concentration: ~5%
Oral administration, 15 mg/kg
  Small intestinal tissue to plasma ratio (T/P): 428
Pigmented LE rats, 15 mg/kg PO
  Residual concentration in small intestine at 168 h: 5.9 μg equiv/g
